Assay results: US20170252298A1, “Performance-Enhancing Nasal Irrigation” (Backed-by-Science, Inc., priority 2014, published 2017)
Where “and” joins values, the source holds several entries; their conditions need not be identical. Equal values may be shown once.

System: nasal cilia
Assay: nasal ciliary beat frequency (CBF), whole field analysis over time
Type: cell-based
Parameters: Mean CBF (WFA): unit: Hz
Description: The ATP concentration inside the cell is typically 1-10 millimolar (mM). We started with an ATP concentration of 1 mg/ml based on literature data and from testing done by Dr. James Palmer at University of Pennsylvania on ATP concentration for increasing nasal ciliary beat frequency. […] 1 mg/ml from the below charts=1 mg/ml=1 gram per liter=1/507 g/mol=2 mM. Most intracellular ATP concentrations in animals fall within the range of 0.5-10 mM. [table]

[1] = Plate 1, elapsed 0:00:00, treatment of plate not stated
[2] = Plate 2, elapsed 0:00:00, ATP 1 mg/ml
[3] = Plate 2, elapsed 0:00:10, ATP 1 mg/ml
[4] = Plate 2, elapsed 0:00:30, ATP 1 mg/ml
[5] = Plate 2, elapsed 0:00:40, ATP 1 mg/ml
[6] = Plate 2, elapsed 0:00:50, ATP 1 mg/ml
[7] = Plate 2, elapsed 0:01:00, ATP 1 mg/ml
[8] = Plate 2, elapsed 0:01:10, ATP 1 mg/ml
[9] = Plate 2, elapsed 0:01:20, ATP 1 mg/ml
[10] = Plate 2, elapsed 0:01:30, ATP 1 mg/ml
[11] = Plate 2, elapsed 0:01:40, ATP 1 mg/ml
[12] = Plate 2, elapsed 0:01:50, ATP 1 mg/ml
[13] = Plate 2, elapsed 0:02:00, ATP 1 mg/ml
[14] = Plate 2, elapsed 0:02:10, ATP 1 mg/ml
[15] = Plate 2, elapsed 0:02:20, ATP 1 mg/ml
[16] = Plate 2, elapsed 0:02:30, ATP 1 mg/ml
[17] = Plate 2, elapsed 0:02:40, ATP 1 mg/ml
[18] = Plate 2, elapsed 0:02:50, ATP 1 mg/ml
[19] = Plate 2, elapsed 0:03:00, ATP 1 mg/ml
[20] = Plate 2, elapsed 0:03:10, ATP 1 mg/ml
[21] = Plate 2, elapsed 0:03:20, ATP 1 mg/ml
[22] = Plate 2, elapsed 0:03:30, ATP 1 mg/ml
[23] = Plate 2, elapsed 0:03:40, ATP 1 mg/ml
[24] = Plate 2, elapsed 0:03:50, ATP 1 mg/ml
[25] = Plate 2, elapsed 0:04:00, ATP 1 mg/ml
[26] = Plate 2, elapsed 0:04:10, ATP 1 mg/ml
[27] = Plate 2, elapsed 0:04:20, ATP 1 mg/ml
[28] = Plate 2, elapsed 0:04:30, ATP 1 mg/ml
[29] = Plate 2, elapsed 0:04:40, ATP 1 mg/ml
[30] = Plate 2, elapsed 0:04:50, ATP 1 mg/ml
[31] = Plate 2, elapsed 0:05:00, ATP 1 mg/ml
[32] = Plate 2, elapsed 0:05:10, ATP 1 mg/ml
[33] = Plate 2, elapsed 0:05:20, ATP 1 mg/ml
[34] = Plate 2, elapsed 0:05:30, ATP 1 mg/ml
[35] = Plate 2, elapsed 0:05:40, ATP 1 mg/ml
[36] = Plate 2, elapsed 0:05:50, ATP 1 mg/ml
[37] = Plate 2, elapsed 0:06:00, ATP 1 mg/ml
[38] = Plate 2, elapsed 0:06:10, ATP 1 mg/ml
[39] = Plate 2, elapsed 0:06:20, ATP 1 mg/ml
[40] = Plate 2, elapsed 0:06:30, ATP 1 mg/ml
[41] = Plate 2, elapsed 0:06:40, ATP 1 mg/ml
[42] = Plate 2, elapsed 0:06:50, ATP 1 mg/ml
[43] = Plate 2, elapsed 0:07:00, ATP 1 mg/ml
[44] = Plate 2, elapsed 0:07:10, ATP 1 mg/ml
[45] = Plate 2, elapsed 0:07:20, ATP 1 mg/ml
[46] = Plate 2, elapsed 0:07:30, ATP 1 mg/ml
[47] = Plate 2, elapsed 0:07:40, ATP 1 mg/ml
[48] = Plate 2, elapsed 0:07:50, ATP 1 mg/ml
[49] = Plate 2, elapsed 0:08:00, ATP 1 mg/ml

## Nc1ncnc2c1ncn2[C@@H]1O[C@H](COP(=O)(O)OP(=O)(O)OP(=O)(O)O)[C@@H](O)[C@H]1O [ATP, adenosine triphosphate]
[1]
  Active Area: 82.86% and 60.42% and 53.54%
  Mean CBF (WFA): 6.75 and 6.14 and 5.59
[2]
  Active Area: 22.19%
  Mean CBF (WFA): 8.06
[3]
  Active Area: 44.1%
  Mean CBF (WFA): 7.41
[4]
  Active Area: 49.49%
  Mean CBF (WFA): 7.42
[5]
  Active Area: 49.6%
  Mean CBF (WFA): 7.5
[6]
  Active Area: 48.61%
  Mean CBF (WFA): 7.55
[7]
  Active Area: 42.47%
  Mean CBF (WFA): 7.66
[8]
  Active Area: 43.64%
  Mean CBF (WFA): 7.75
[9]
  Active Area: 45.62%
  Mean CBF (WFA): 7.82
[10]
  Active Area: 36.91%
  Mean CBF (WFA): 7.92
[11]
  Active Area: 40.43%
  Mean CBF (WFA): 7.99
[12]
  Active Area: 43.13%
  Mean CBF (WFA): 7.95
[13]
  Active Area: 41.96%
  Mean CBF (WFA): 8.01
[14]
  Active Area: 43.36%
  Mean CBF (WFA): 8
[15]
  Active Area: 42.03%
  Mean CBF (WFA): 8.03
[16]
  Active Area: 15.64%
  Mean CBF (WFA): 7.96
[17]
  Active Area: 37.46%
  Mean CBF (WFA): 8.02
[18]
  Active Area: 40.07%
  Mean CBF (WFA): 8.02
[19]
  Active Area: 38.29%
  Mean CBF (WFA): 8.08
[20]
  Active Area: 38.85%
  Mean CBF (WFA): 8.1
[21]
  Active Area: 37.75%
  Mean CBF (WFA): 8.09
[22]
  Active Area: 36.48%
  Mean CBF (WFA): 8.07
[23]
  Active Area: 37.41%
  Mean CBF (WFA): 8.07
[24]
  Active Area: 36.73%
  Mean CBF (WFA): 8.12
[25]
  Active Area: 37.22%
  Mean CBF (WFA): 8.11
[26]
  Active Area: 38.13%
  Mean CBF (WFA): 8.09
[27]
  Active Area: 36.96%
  Mean CBF (WFA): 8.12
[28]
  Active Area: 36.02%
  Mean CBF (WFA): 8.12
[29]
  Active Area: 36.21%
  Mean CBF (WFA): 8.06
[30]
  Active Area: 34.77%
  Mean CBF (WFA): 8.05
[31]
  Active Area: 37.11%
  Mean CBF (WFA): 8.12
[32]
  Active Area: 34.86%
  Mean CBF (WFA): 8.08
[33]
  Active Area: 35.53%
  Mean CBF (WFA): 8.09
[34]
  Active Area: 36.15%
  Mean CBF (WFA): 8.22
[35]
  Active Area: 38.41%
  Mean CBF (WFA): 8.15
[36]
  Active Area: 38.05%
  Mean CBF (WFA): 8.13
[37]
  Active Area: 39.37%
  Mean CBF (WFA): 8.17
[38]
  Active Area: 39.15%
  Mean CBF (WFA): 8.14
[39]
  Active Area: 37.86%
  Mean CBF (WFA): 8.15
[40]
  Active Area: 31.72%
  Mean CBF (WFA): 8.11
[41]
  Active Area: 35.94%
  Mean CBF (WFA): 8.21
[42]
  Active Area: 36.95%
  Mean CBF (WFA): 8.22
[43]
  Active Area: 28.86%
  Mean CBF (WFA): 8.23
[44]
  Active Area: 36.92%
  Mean CBF (WFA): 8.2
[45]
  Active Area: 38.3%
  Mean CBF (WFA): 8.24
[46]
  Active Area: 37.18%
  Mean CBF (WFA): 8.25
[47]
  Active Area: 36.54%
  Mean CBF (WFA): 8.23
[48]
  Active Area: 35.67%
  Mean CBF (WFA): 8.22
[49]
  Active Area: 37.37%
  Mean CBF (WFA): 8.17
